Assay results as given in patent US20260373233A1, “ISLET AMYLOID POLYPEPTIDE ISOFORMS AND PEPTIDES AND METHODS OF USE” (The United States of America, as represented by the …, priority 2022, published 2026).
Peptide text beside a SMILES is read from it.

Legend:
dopaminergic neurons = details: animal models of Parkinson's disease; amidated DNSP11; cited from earlier work
[1] = ThT amyloid reporter binding assay of peptide alone
Method: (§1) Thioflavin T in vitro assay for IAPP and Ab amyloid formation: Thioflavin T (ThT) was from Millipore-Sigma (Cat #T3516, Rockville, MD). […] Black 96 well microplates (Chimney Well) were from Greiner Bio-One (Frickenhausen, Germany). C-terminal amidated IAPP25 and DNSP11 peptides were synthesized by GeneMed Synthesis Inc (San Antonio, TX). […] The final concentration […] 1% DMSO and 25 μM ThT in Component A buffer (AnaSpec Manual of SensoLyte Thioflavin T Aggregation Kit, Cat #AS-72214).
(§2) FIG. 10A is a representative experiment of three replicates showing IAPP37 aggregation dynamics with lag time of 90 min and inhibition by IAPP25 (derived from IAPP-γ) and DNSP11. […] ThT binding fluorescent intensity (F.I.) was transformed to area under curve (AUC) using the trapezoidal rule and the inhibitions were analyzed by one-way ANOVA with Tukey's multi-test correction.

Aβ42 = biological target: T1, Aβ42 (Homo sapiens, UniProt P05067); assay: Thioflavin T (ThT) Aβ42 fibrillation assay; format: biochemical; details: linear range of 70-120 min; 50 μM Aβ42 with 50 μM inhibitory peptide; 37 °C; p<0.0001
T1 construct: ThT fibrillation assay
T1 sequence (P05067 672-713): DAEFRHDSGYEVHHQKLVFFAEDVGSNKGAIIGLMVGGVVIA
Method: Thioflavin T in vitro assay for IAPP and Ab amyloid formation: Thioflavin T (ThT) was from Millipore-Sigma (Cat #T3516, Rockville, MD). […] Black 96 well microplates (Chimney Well) were from Greiner Bio-One (Frickenhausen, Germany). […] The final concentration the monomeric peptides was 1% DMSO and 25 μM ThT in Component A buffer (AnaSpec Manual of SensoLyte Thioflavin T Aggregation Kit, Cat #AS-72214).
P<0.05 was considered significant and data were represented as means±SEM. […] For ThT amyloid dye assay, area under a curve (AUC) was calculated using the trapezoidal rule and the data were analyzed using one-way ANOVA with Tukey's multiple comparison correction. The ratio of means (±SEM) was calculated by propagation of error formula.

IAPP37 = biological target: T2, IAPP37 (Homo sapiens, UniProt P10997); assay: Thioflavin T (ThT) IAPP37 fibrillation assay; format: biochemical; details: 37 °C; for IAPP aggregation dynamics (AUC of ThT fluorescence) with inhibitor, % of IAPP37 aggregation: linear range of 90-160 min, 50 μM IAPP37 with 50 μM inhibitory peptide, p=0.003
T2 construct: ThT fibrillation assay
T2 sequence (P10997 34-70): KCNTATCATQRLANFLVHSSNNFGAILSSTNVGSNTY
Method: as §1
Statistical data analysis: GraphPad Prism v9 software was used for statistical analysis of RT-qPCR and SRM data and MetaboAnalyst v5.0 (metaboanalyst.ca/) was used for partial least squares-discriminant analysis (PLS-DA). P<0.05 was considered significant and data were represented as means±SEM. The normalized expression values of IAPP isoforms in TaqMan fold changes and ddPCR IAPP/GAPDH droplets, ELISA, and SRM quantitative values were analyzed with unpaired student t-test, Pearson correlation coefficient matrix. All statistical procedures for SRM biomarker discovery were carried out by using GraphPad Prism v9 software and MetaboAnalyst 5.0. Biomarker accuracies were calculated by area under the receiver operating characteristic curve (AUROC). For ThT amyloid dye assay, area under a curve (AUC) was calculated using the trapezoidal rule and the data were analyzed using one-way ANOVA with Tukey's multiple comparison correction. The ratio of means (±SEM) was calculated by propagation of error formula.
as §2

Compound | protection of dopaminergic neurons (dopaminergic neurons) | binding to ThT amyloid reporter [1] | Aβ aggregation dynamics (AUC of ThT fluorescence) with inhibitor, % of Aβ42 aggregation (Aβ42) [%] | IAPP aggregation dynamics (AUC of ThT fluorescence) with inhibitor, % of IAPP37 aggregation (IAPP37) [%] | lag time of IAPP37 aggregation (IAPP37; IAPP37, representative experiment of three replicates) [min]
CC(C)C[C@H](NC(=O)[C@H](CO)NC(=O)[C@H](CCCNC(=N)N)NC(=O)[C@H](CC(=O)O)NC(=O)[C@H](CCC(=O)O)NC(=O)[C@H](C)NC(=O)[C@@H]1CCCN1C(=O)[C@H](C)NC(=O)[C@H](CCC(=O)O)NC(=O)[C@@H]1CCCN1C(=O)[C@@H]1CCCN1)C(N)=O [DNSP11] (H-PPEAPAEDRSL-NH2) | protective to dopaminergic neurons | did not bind | 62.9 | 24.1 | –
CC[C@H](C)[C@H](NC(=O)[C@H](CCC(N)=O)NC(=O)[C@H](Cc1c[nH]c2ccccc12)NC(=O)[C@H](C)NC(=O)[C@H](CO)NC(=O)[C@H](CCCNC(=N)N)NC(=O)[C@H](CCC(N)=O)NC(=O)[C@@H](NC(=O)[C@H](Cc1c[nH]cn1)NC(=O)[C@@H]1CCCN1C(=O)[C@H](CC(C)C)NC(=O)[C@@H](NC(=O)[C@H](C)NC(=O)[C@H](CC(N)=O)NC(=O)CNC(=O)[C@H](CO)NC(=O)[C@H](CCCCN)NC(=O)[C@H](Cc1c[nH]c2ccccc12)NC(=O)[C@H](CCCNC(=N)N)NC(=O)[C@@H](NC(=O)[C@@H](NC(=O)[C@H](CCCCN)NC(=O)[C@H](CO)NC(=O)[C@@H](N)CCCCN)C(C)C)[C@@H](C)CC)[C@@H](C)O)C(C)C)C(=O)N[C@@H](Cc1ccccc1)C(N)=O [IAPP25] (H-KSKVIRWKSGNATLPHVQRSAWQIF-NH2) | – | did not bind | 50.6 | 25.0 | –
KCNTATCATQRLANFLVHSSNNFGAILSSTNVGSNTY [IAPP37, mature human IAPP, 37-AA peptide (AnaSpec Cat #AS-60254-1), reference compound] | – | – | – | – | 90
